Values quoted from earlier work, collected in patent US20060251750A1, “Soy formulations and their use in skin care” (priority 2002, published 2006).

Columns and labels:
UV radiation = details: lotions
squamous cell carcinomas = details: daily topical applications of lotions
photocarcinogenesis = details: hairless mice; both topical and oral administration

Compound	inflammatory edema reactions induced by UV radiation (UV radiation)	suppression of contact hypersensitivity induced by UV radiation (UV radiation)	proportion of tumors progressing from benign papillomas to malignant squamous cell carcinomas (squamous cell carcinomas)	size of these carcinomas (squamous cell carcinomas)	initiation and promotion of photocarcinogenesis (photocarcinogenesis)	tumor incidence and multiplicity (photocarcinogenesis)
Oc1ccc([C@H]2COc3cc(O)ccc3C2)cc1 [equol]	reduce	reduce	reduce	reduce		
isoequol	reduce	reduce				
Oc1ccc(C2=Cc3ccc(O)cc3OC2)cc1 [dehydroequol]	reduce	reduce				
O=c1c(-c2ccc(O)cc2)coc2cc(O)cc(O)c12 [genistein]	reduce	reduce			inhibit	reduction
